# Measured values from patent publication US7291492B2, “Histone deacetylase 9” (The Institute of Cancer Research, priority 2001, dated 2007).
# System: GAL4 DBD-HDAC9 fusions
# Conditions: 293T cells, GAL4-TK-Luc reporter; HDAC9, HDAC9ΔCD and HDAC9CD fusions
# Procedure: GAL4-Tk-Luc was transiently transfected into 293T cells together with 100 ng GAL4 DBD fusions. All Results were performed in duplicate […].
# It has been previously established that HDACs repress transcription when tethered to DNA as Gal4 fusion proteins. […] A GAL4^uasx5-TK-Luciferase reporter gene was transiently transfected into 293T cells together with the expression vectors for the indicated GAL4 fusion proteins.
substance,measurement,value
Trichostatin A,effect on the repressive effects of GAL4 DBD-HDAC9 fusions (reporter activity),partially relieved
